Reference: patent US20250281584A1, “ACTIVE VACCINATION FOR THE TREATMENT OF NGF-RELATED DISORDERS” (priority 2024, published 2025)

Tests used:
[1] = Thermal shift assay with SYPRO Orange (thermal stability of VLPs); format: physicochemical; details: 0.5 mg/ml VLPs in 5 mM Na phosphate, 2 mM EDTA, pH 7.5, real-time PCR system
Procedure: A thermal shift assay involving temperature-induced denaturation and the fluorescent dye SYPRO® Orange (Sigma, Saint Louis, USA) was used for this purpose. The dye is a naturally quenched in solution but as the VLPs denature with increasing temperatures, SYPRO® Orange interacts with exposed hydrophobic amino acids and cores and emits a fluorescent signal, which is measured by fluorometry. From the resultant melting curve (fluorescent signal vs temperature), the melt peak curves and melting temperature were determined. Solutions containing 0.5 mg/ml of sucrose density gradient purified (as described in Example 1 above) CMV-Ntt830 VLPs or CMV-Ntt830-E4 VLPs in 5 mM Na phosphate, 2 mM EDTA, pH 7.5 were assayed with a real-time PCR system MJ Mini (Bio-Rad, Hercules, USA) using a DNA melting point determination program. Data were analysed using Opticon Monitor Software and melting curves processed at a smooth setting of four.

[2] = Ionic strength/salt stability of VLPs in NaCl, native agarose gel electrophoresis; format: physicochemical; details: NaCl concentrations up to 0.4 M, room temperature, 0.5 mg/ml, pH 7.5
Procedure: FIG. 12: Stability of CMV-Ntt830 VLPs and CMV-Ntt830-E4 VLPs in solution in the presence of different NaCl concentrations. Samples of CMV-Ntt830 VLPs and CMV-Ntt830-E4 VLPs at 0.5 mg/ml were incubated at room temperature in 5 mM Na phosphate, 2 mM EDTA, pH 7.5 with different concentrations of NaCl (the molar concentration of NaCl in each sample is indicated at the bottom of the gels) for up to 2 hours. Samples were analysed by native agarose gel electrophoresis and ethidium bromide staining. Panels A and B show NAGE analysis of CMV-Ntt830 VLP and CMV-Ntt830-E4 VLPsamples respectively. […] Black arrows indicate the position of loading wells within the gels and location of VLPs within the wells and gels. The presence of CMV-Ntt830 VLPs in the loading wells after electrophoresis (panel A) is due to the formation of VLP aggregates which are too large to enter the gel. Integral unaggreagted VLPs migrated into the gel.
The relative stabilities of CMV-Ntt830 VLPs and CMV-Ntt830-E4 VLPs to NaCl were tested by incubating purified VLPs (0.5 mg/ml in 5 mM Na phosphate, 2 mM EDTA, pH 7.5) at room temperature with various NaCl concentrations.

[3] = Processability of VLPs by anion exchange chromatography (aggregation by NAGE); format: physicochemical; details: DEAE resin, pH 9.0, NaCl elution
Procedure: To test the processability of prior art CMV-Ntt830 VLPs with anion exchange chromatography (AEX), sucrose gradient purified VLPs were prepared as described in Examples 2-4 of WO2016/062720A1. Five mls of CMV-Ntt830 VLPs (1 mg/ml) were buffer exchanged into 5 mM sodium borate pH 9 and loaded onto a 1.0 ml Macro-Prep DEAE Bio-Rad anion exchange cartridge equilibrated with the same buffer. After the loading step, the concentration of NaCl in the elution buffer was increased in step-wise manner (0.1, 0.2, 0.3, 0.4, 0.5, 0.8., 1.0 and 2.0 M). Fractions were collected and measured at 260 nm using Nanodrop spectrophotometer to measure protein and subjected to native agarose gel electrophoresis (NAGE).
In contrast, non-aggregated CMV-Ntt830-E4 VLPs could be readily purified from a crude lysate using AEX. Clarified lysate prepared from E. coli expressing CMV-Ntt830-E4 VLPs (as described in Example 1) in 50 mM citrate, 5 mM Borate buffer pH 9.0 was loaded onto 60 ml of Fracto-DEAE (Merck) in an XK 26/20 column equilibrated with the same buffer and eluted by applying a continuous NaCl gradient from 0 to 1.0 M in the same buffer. The eluate was monitored at A260 nm to measure protein and conductivity measured to monitor salt concentration. The clarified lysate, flow-through and fractions were collected and subjected to NAGE and SDS-PAGE.

[4] = test system: kaolin-induced inflammation in the hind paw; experiment: Kaolin model of acute inflammatory pain, lameness score; format: in vivo, dog
Procedure: Kaolin-induced inflammation in the hind paw was performed based on the model described in “Paw inflammation model in dogs for preclinical pharmacokinetic/pharmacodynamic investigations of nonsteroidal anti-inflammatory drugs” (Jeunesse et al., 2011, J Pharmacol Exp Ther., 338 (2): 548-58). Briefly, the dogs were anaesthetized with an intravenous administration of propofol (Propovet, 6.5 mg/kg, Zoetis, France) and kaolin was injected subcutaneously on one paw. On D42, the injections were performed on the right hind paw of all dogs.
Lameness score was assessed on a typical course made by each dog using a numerical rating scale initially developed by Giraudel et al. (Giraudel J M et al., 2005, Br J Pharmacol 146:642-653; Giraudel J M et al., 2005, J Vet Pharmacol Ther 28:275-285) on cats and adapted by Jeunesse et al. (Jeunesse et al., 2011, J Pharmacol Exp Ther., 338 (2): 548-58). […] Lameness score was assessed on live and separately on videos by a different operator. […]

canine NGF protein [5] = experiment: NGF total IgG ELISA in dog sera, kaolin study (Example 7); format: in vivo; details: study day 42; vaccine 250 μg s.c. D0 and D21; bedinvetmab s.c. once D35
Procedure: (§1) The range of the actual doses of bedinvetmab administered was 0.52-0.97 mg/kg in line with the product information of the marketing authorization. • For the Vaccine group, the dogs received the inventive vaccine candidate, cNGF-CMV-Ntt830-E4 VLP, twice subcutaneously at the back of the neck on day 0 (DO) and day 21 (D21) at the dose of 250 μg VLP-NGF/dog.
Blood samples for serology were collected at the following time points on DO, D21, D70, D84, D105 and D119 for the Vaccine and the Placebo groups only, on D35 for the Librela® group only, on D42 and on D56 for the three group. Blood samples were centrifuged and the serum decanted into three aliquots per sample.
NGF- and cNGF-CMV-Ntt830-E4 VLP total specific IgG antibodies in sera were measured by ELISA. ELISA plates were coated with recombinantly produced canine NGF protein (1.0 μg/mL) or cNGF-CMV-Ntt830-E4 VLP (2.0 μg/mL). Serum samples were pre-diluted 1:100, transferred to the ELISA plates and subjected to serial dilutions 3-fold serial dilution steps with a total of 11 dilutions being tested per serum sample. […] Relative concentrations of anti-NGF IgG antibody in the serum (μg/mL) were calculated by multiplying the EC50 values of the serum with the EC50 values determine for the Bedinvetmab standard. […]

human beta-NGF = human beta-NGF (Homo sapiens, UniProt P01138); experiment: TF-1 cell based NGF neutralization bioassay, kaolin study
Chain of human beta-NGF (P01138 122-241): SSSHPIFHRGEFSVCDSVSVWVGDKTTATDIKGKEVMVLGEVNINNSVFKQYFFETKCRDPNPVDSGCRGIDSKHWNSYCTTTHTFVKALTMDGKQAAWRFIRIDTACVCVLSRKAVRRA
Procedure: as §1
Heat-inactivated (56° C. 30 min), serial-diluted sera or antibody standard (canonized monoclonal anti-canine NGF antibody bedinvetmab, Zoetis) were incubated with 5 ng/mL human beta-NGF for 1 hour at room temperature. The NGF-sera/antibody solution was then added to […] starved overnight of growth factors. Cell viability was quantified over the last 7 hour period of a total 72 hour incubation period using the CellTiter 96 AQueous One Solution Cell Proliferation Assay reagent (Promega). Absorbance was measured using a microplate reader (TecanSpark) at a wavelength of 490 nm and a reference wavelength of 700 nm. Titration curves were generated by plotting the difference in absorbance (490 nm-700 nm) versus the dilution factor of the serum sample. Using a 4-Parameter logistic regression curve fit model the IC50 values, the dilution factor corresponding to half maximum OD values, were determined. Serum titers of samples at different time points were defined and depicted as the IC50 values of the curve fit. […]

canine NGF protein [6] = experiment: NGF total IgG ELISA in dog sera, ACLT+PMM chronic pain study (Example 8); format: in vivo; details: day 203 sera, group B, monthly s.c. administration
Procedure: NGF- and cNGF-CMV-Ntt830-E4 VLP total specific IgG antibodies in sera were measured by ELISA. ELISA plates were coated with recombinantly produced canine NGF protein (1.0 μg/mL) or cNGF-CMV-Ntt830-E4 VLP (2.0 μg/mL). Serum samples were pre-diluted 1:100, transferred to the ELISA plates and subjected to serial dilutions 3-fold serial dilution steps with a total of 11 dilutions being tested per serum sample. Following incubation, horse-radish peroxidase-(HRP-) labelled goat anti-dog IgG (Jackson ImmunoResearch, cat no 304-035-008, lot 156911) was added. After 2 hours incubation at room temperature, the plates were washed 4 times with 1×PBS/0.05% (v/v) Tween 20. […] Serum titers of samples at different time points were defined and depicted as the EC50 values of the curve fit. Titers below the detection limit of the assay were set to 100 for anti-CMV IgG respectively 50 for anti-NGF IgG, half of the lowest dilution factor (1:200 respectively 1:100) used in the assay. Bedinvetmab was used as a standard in the NGF IgG ELISA. Relative concentrations of anti-NGF IgG antibody in the serum (μg/mL) were calculated by multiplying the EC50 values of the serum with the EC50 values determine for the Bedinvetmab standard. Neutralization titers below the detection limit of the assay were set the equivalent monoclonal antibody concentration of the EC50 value of 50. […]

hNGF binding to TrkA = biological target: T1, hNGF binding to TrkA (Homo sapiens, UniProt P01138); experiment: TrkA based NGF binding ELISA, ACLT+PMM study; format: biochemical; details: day 203, group B, 6 days after administration
T1 construct: 5 ng/ml human mature NGF (R&D, 256-GF-100/CF); purchased R&D (hNGF); SinoBio (TrkA) 256-GF; 11073-H08H
T1 sequence (P01138 122-241): as above
Procedure: ELISA plates were coated with 100 μL/well of 0.5 μg/mL TrkA (SinoBio 11073-H08H) in PBS over night at +4° C. After washing with PBST, plates were blocked using 200 μL/well SuperBlock (ThermoScientific 37518) for 1 hour at room temperature. Serum samples or positive control antibody (caninized monoclonal anti-canine NGF antibody bedinvetmab, Zoetis) were diluted in 2% BSA/PBST and incubated with 1.25 ng/ml hNGF (R&D 256-GF) for 1 hour. After washing the ELISA plates, serum/NGF solution was added to the plates. Plates were incubated for 1 hour at room temperature, washed and HRP-labelled rabbit anti-NGF antibody (SinoBio 11050-RP02-H) at a concentration of 1.5 μg/mL was added. After the plates were washed 4 times with 1×PBS/0.05% (v/v) Tween 20, TMB substrate (ThermoScientific 3401) as the HRP substrate and development reaction was stopped by addition of 2M H2SO4. OD values at 450 nm were measured using a microplate reader (TecanSpark). […] Using a 4-Parameter logistic regression curve fit model the IC50 values, the dilution factor corresponding to half maximum OD 450 nm values, were determined. […] Relative concentrations of neutralizing antibody in the serum (μg/mL) were calculated by multiplying the IC50 values of the serum with the IC50 values determine for the bedinvetmab standard (μg/mL). […]

[7] = in vivo; cited from earlier work
PC12 cells = experiment: Neurite outgrowth bioassay for authenticity of recombinant NGF; format: cell-based; details: 5 days, 6.25-100 ng/ml NGF
Procedure: FIG. 15B: PC12 cells were grown for 5 days with recombinant human mature NGF produced in mouse myeloma cells (R&D systems) (black squares) or with canine mature NGF produced in E. coli as described herein (grey circles). Cells were grown in the presence of 100, 50, 25, 12.5 and 6.25 ng/ml of recombinant NGF and the percentage of cells with defined neurite outgrowth determined.

In the case of “CMV-Ntt830-E4 VLPs: modified CMV VLP of chimeric CMV polypeptide SEQ ID NO:10, four glutamic acid residues (E4) inserted into CMV-Ntt830”, the “melting temperature (melting point)” value [1] is reported as roughly 57 °C, the “aggregate formation in presence of NaCl” value [2] is reported as “no evidence of aggregate formation” and the “aggregated VLPs after anion exchange chromatography (NAGE loading wells)” value [3] is reported as “no evidence of aggregated VLPs”.

With `Cc1cnc(NC(=O)C2=C(O)c3ccccc3S(=O)(=O)N2C)s1` [Inflacam®, meloxicam] the “mean lameness score as compared to the Placebo group” value ([4]; one day after kaolin-induced inflammation, 0.2 mg meloxicam/kg s.c. D43) was “reduced”.

For bedinvetmab, the “NGF-specific IgG GMT (standard equivalent concentration), peak” value (canine NGF protein [5]) was 3.68 µg/mL, the “peak NGF neutralizing titers” value (human beta-NGF; study day 42, study group 1) was 3.93 µg/mL and the “dogs with levels below the detection limit of the TF-1-based NGF neutralization assay” value (human beta-NGF; study day 56, 21 days after administration) was 6 of 7. The “mean AUC for lameness scores” value ([4]; 14 days post kaolin challenge, 7 dogs/group) was 15.36, the “NGF-specific IgG GMT” value (canine NGF protein [6]) was 10.9 µg/mL and the “NGF neutralizing antibody titers” value (hNGF binding to TrkA) was 7.85 µg/mL. The “mean titers (dashed line FIG. 24B)” value [7] was 1 µg/mL and the “peak antibody titer in serum after administration of bedinvetmab” value [7] was 6.1 µg/mL.

B1: canine mature NGF: recombinant canine mature NGF (SEQ ID NO:30) produced in E. coli, with C-terminal GCG motif (SEQ ID NO:31) or His-tag (SEQ ID NO:33) (protein)
chain: SSSHPVFHRGEFSVCDSVSVWVGDKTTATDIKGKEVMVLGEVNINNSVFKQYFFETKCRDPTPVDSGCRGIDSKHWNSYCTTTHTFVKALTMDGKQAAWRFIRIDTACVCVLSRKAGRRAG
modifications: C-terminal GCG motif or His-tag
With B1 the “activity at inducing neurite outgrowth compared with commercial mature NGF (R&D systems)” value (PC12 cells) was “similarly active”.
